Data published in PubChem BioAssay AID466 (The Scripps Research Institute Molecular Screening Center, 2006).
Active and inactive are the calls of the source. No rule for the calls is given here.

Molecular target: Sphingosine 1-phosphate receptor 1 (Homo sapiens) (UniProt P21453)
Assay: S1P1 agonism potentiation – cell-based, potentiator mode, 60K MLSMR set, dose response (AID 466)
Settings: S1P1 cell assay, potentiation of agonist response

Chain of Sphingosine 1-phosphate receptor 1 (Homo sapiens) (P21453 whole entry, looked up): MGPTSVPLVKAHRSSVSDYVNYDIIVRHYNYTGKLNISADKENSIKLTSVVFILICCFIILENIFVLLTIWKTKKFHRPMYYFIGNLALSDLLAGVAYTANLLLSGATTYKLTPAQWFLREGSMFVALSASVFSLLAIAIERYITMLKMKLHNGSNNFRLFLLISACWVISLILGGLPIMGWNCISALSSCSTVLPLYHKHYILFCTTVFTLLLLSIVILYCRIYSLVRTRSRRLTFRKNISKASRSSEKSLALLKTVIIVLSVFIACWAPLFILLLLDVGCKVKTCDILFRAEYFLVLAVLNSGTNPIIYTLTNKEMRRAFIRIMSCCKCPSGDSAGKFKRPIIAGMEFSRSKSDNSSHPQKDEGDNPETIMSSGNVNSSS

| Compound | EC50 |
| --- | --- |
| COc1ccc(N2C(=O)CC(Sc3ncn[nH]3)C2=O)c(OC)c1 (stereo not given) | inactive |
| Cc1cc(N2CCOCC2)nc(NCc2ccccc2)n1 | inactive |
| CCOC(=O)C1CCN(c2ncnc3c2oc2ccccc23)CC1 | inactive |
| FC(F)(F)c1ccc(N2CCN(c3cc(-c4ccccc4)nc4ncnn34)CC2)nc1 | inactive |
| CC(C)Cn1c(N)c(C(=O)CSc2ccc3c(c2)OCCO3)c(=O)n(C)c1=O | inactive |
| COc1ccc(/C=N/O)cc1COc1ccc(NC(C)=O)cc1 | > 95 µM (inactive) |
| CC(=O)c1ccc(NC(=O)N2CCN(c3cccc(Cl)c3)CC2)cc1 | 9.84 µM |
| C/C(N)=C(/C#N)C(=O)CSc1nnc(SCc2ccc(Cl)cc2)s1 | 9.63 µM |
| CNc1oc(-c2ccc(OCc3ccccc3)cc2)nc1C#N | 3.24 µM |
| CCC(=NC(C)c1ccccc1)c1c(O)n(C)c(=O)n(C)c1=O (stereo not given) | inactive |
| NC(=O)c1ccc(OCC(F)(F)C(F)(F)C(F)(F)C(F)(F)C(F)(F)C(F)F)cc1 | 7.96 µM |
| Cc1ccc2[nH]c3c(N4CCCCCC4)ncnc3c2c1 | 4.14 µM |
| Cc1[nH]nc2c1C1(C(=O)N(Cc3ccc(Cl)cc3)c3ccccc31)C(C#N)=C(N)O2 (stereo not given) | inactive |
| Cc1nn(Cc2ccc(Cl)c(Cl)c2)c(C)c1NC(=O)c1cc(C2CC2)on1 | inactive |
| CCOC(=O)c1cccc2c1-c1ccccc1/C2=N/O | inactive |
| CC1=C(C(=O)OCc2ccc3c(c2)OCO3)C(c2ccccc2)NC(=O)N1 (stereo not given) | 3.42 µM |
| COc1ccc(/C(O)=C2/C(=O)C(=O)N(CC3CCCO3)C2c2cccc(OC)c2)cc1 (stereo not given) | > 95 µM (inactive) |
| CC1=C(C(=O)OCc2ccc3c(c2)OCO3)C(c2ccc(F)cc2)NC(=O)N1 (stereo not given) | 0.631 µM |

| Compound | EC50 |
| --- | --- |
| Cn1nc(CC(=O)Nc2ccc3c(c2)OCCO3)c2ccccc2c1=O | 5.94 µM |
| C/C(N)=C(/C#N)C(=O)CSc1nc2cc(Cl)ccc2s1 | inactive |
| CC(C)c1ccc(OCc2nc(-c3ccccn3)no2)c(Br)c1 | 4.43 µM |
| Cc1ccc(NC(=O)c2cc(-c3ccco3)on2)cc1C | 5.02 µM |
| CCCCc1ccc(C2C(C#N)=C(N)SC(N)=C2C#N)s1 | inactive |
| O=C1C2C3C=CC(CO)(O3)C2C(=O)N1c1ccccc1-c1ccccc1 (stereo not given) | 6.82 µM |
| CCC(=NCc1ccc2c(c1)OCO2)c1c(O)n(C2CCCCC2)c(=O)[nH]c1=O | 8.66 µM |
| COC(=O)CC1SC(=O)NC1=Nc1ccccc1 (stereo not given) | > 95 µM (inactive) |
| c1ccc2c(c1)CCN(c1ncnc3c1[nH]c1ccccc13)C2 | 1.18 µM |
| CC1(C)CC(=O)C(C=Nc2ccc3[nH]ncc3c2)=C(O)C1 | 6.01 µM |
| Cc1nn(Cc2ccc(Cl)c(Cl)c2)c(C)c1NC(=O)c1cc(-c2ccco2)on1 | 5.57 µM |
| CCC(=NCCOc1ccc(Cl)cc1)c1c(O)n(C)c(=O)n(C)c1=O | 5.34 µM |
| COc1ccc(N=c2scc(-c3ccc(S(=O)(=O)N4CCOCC4)cc3)n2CCCO)cc1 | inactive |
| O=C(C1CCN(S(=O)(=O)c2cccc3cccnc23)CC1)N1CCN(c2ccc(Cl)cc2)CC1 | inactive |
| CC(=O)Oc1ccc(N2C(=O)C3C(C2=O)C2(C)C=CC3(C)O2)cc1 (stereo not given) | inactive |
| CCOc1ccc(C(C)=O)cc1N1C(=O)C2C3C=CC(O3)C2C1=O (stereo not given) | inactive |
| CC(C)c1ccc2oc(-c3cc(N)ccc3O)nc2c1 | 9.39 µM |
